What was measured:
Assay type in all cases: in vivo
[1] = system: Ipomoea hederacea; test: Test Example 1: post-emergence foliage spray pot test in greenhouse, weed control efficacy; details: for weed control efficacy score (0 to 100), Ipomoea hederacea: foliar spray 204 L/ha on plants grown 15 days, evaluated after 11 days, 0 = same as untreated, 100 = completely dead; for weed control efficacies against Ipomoea hederacea (in words): summary of the test at 80 and 40 gai/ha
Description: (§1) Next, weed control efficacies of the Compound A and safety (phytotoxicity) of the Compound A against a useful plant are shown by a Test Example.
(§2) Here the “untreated group” represents a group where the same treatment procedure as that of the treated group except not using the Compound A is done.
(§3) A plastic pot was filled with soil, thereto Amaranthus retroflexus, Ipomoea hederacea, and corn were seeded, and they were grown in a greenhouse for 15 days. Separately, a prescribed amount of a formulation prepared according to the process described in the Formulation Example 1 was diluted with water comprising 1% of Agridex (registered trademark) to obtain a diluent. Said diluent was homogeneously sprayed from above of said plants in a ratio of 204 L/ha such that the applied amount of the Compound A was 80 gai/ha or 40 gai/ha. Then, said plants were grown in a greenhouse for 11 days and evaluated according to the above criteria.
(§4) The Compound B was used instead of the Compound A to carry out the same test as the Test Example 1.

[2] = system: Amaranthus retroflexus; test: as above; details: for weed control efficacy score (0 to 100), Amaranthus retroflexus: foliar spray 204 L/ha on plants grown 15 days, evaluated after 11 days, 0 = same as untreated, 100 = completely dead; for weed control efficacies against Amaranthus retroflexus (in words): summary of the test at 80 and 40 gai/ha
Description: as §1, §2, §3, §4

[3] = system: corn; test: Test Example 1: post-emergence foliage spray pot test in greenhouse, safety (phytotoxicity) against a useful plant; details: for phytotoxicity score (0 to 100), corn: foliar spray 204 L/ha on plants grown 15 days, evaluated after 11 days, 0 = same as untreated, 100 = completely dead
Description: as §1, §2, §3, §4

SMILES | weed control efficacy score (0 to 100), Ipomoea hederacea ([1]; applied amount 40 gai/ha) | weed control efficacy score (0 to 100), Ipomoea hederacea ([1]; applied amount 80 gai/ha) | weed control efficacies against Ipomoea hederacea (in words) [1] | weed control efficacy score (0 to 100), Amaranthus retroflexus ([2]; applied amount 40 gai/ha) | weed control efficacy score (0 to 100), Amaranthus retroflexus ([2]; applied amount 80 gai/ha) | weed control efficacies against Amaranthus retroflexus (in words) [2] | phytotoxicity against corn (in words) ([3]; in vivo) | phytotoxicity score (0 to 100), corn ([3]; applied amount 40 gai/ha) | phytotoxicity score (0 to 100), corn ([3]; applied amount 80 gai/ha) | phytotoxicity against corn (in words) ([3]; summary of the test at 80 and 40 gai/ha)
CCOC(=O)COc1nc(-n2c(=O)cc(C(F)(F)F)n(C)c2=O)ccc1Oc1cc(-n2c(=O)cc(C(F)(F)F)n(C)c2=O)c(F)cc1Cl [Compound A] | 95 | 100 | high weed control efficacies | 100 | 100 | high weed control efficacies | low phytotoxicity |  |  | 
CCOC(=O)COc1ncccc1Oc1cc(-n2c(=O)cc(C(F)(F)F)n(C)c2=O)c(F)cc1Cl [Compound B] | 100 | 100 | high weed control efficacies | 100 | 100 | high weed control efficacies |  | 100 | 100 | high phytotoxicity

Source: US11896010B2, “Uracil compound and use thereof” (Sumitomo Chemical Company, Limited, priority 2018, dated 2024)
